Here are results for five molecules from patent US20260234125A1, “CYCLIC AMINE DERIVATIVE, AND COMPOSITION AND USE THEREOF” (SHANGHAI JINGXIN BIOMEDICAL CO., LTD., priority 2023, published 2026).

The target of this test is T1, human Apo(a) protein (Homo sapiens, UniProt P08519).
T1 construct: biotin (biotinylated)
T1 sequence (P08519 20-2040): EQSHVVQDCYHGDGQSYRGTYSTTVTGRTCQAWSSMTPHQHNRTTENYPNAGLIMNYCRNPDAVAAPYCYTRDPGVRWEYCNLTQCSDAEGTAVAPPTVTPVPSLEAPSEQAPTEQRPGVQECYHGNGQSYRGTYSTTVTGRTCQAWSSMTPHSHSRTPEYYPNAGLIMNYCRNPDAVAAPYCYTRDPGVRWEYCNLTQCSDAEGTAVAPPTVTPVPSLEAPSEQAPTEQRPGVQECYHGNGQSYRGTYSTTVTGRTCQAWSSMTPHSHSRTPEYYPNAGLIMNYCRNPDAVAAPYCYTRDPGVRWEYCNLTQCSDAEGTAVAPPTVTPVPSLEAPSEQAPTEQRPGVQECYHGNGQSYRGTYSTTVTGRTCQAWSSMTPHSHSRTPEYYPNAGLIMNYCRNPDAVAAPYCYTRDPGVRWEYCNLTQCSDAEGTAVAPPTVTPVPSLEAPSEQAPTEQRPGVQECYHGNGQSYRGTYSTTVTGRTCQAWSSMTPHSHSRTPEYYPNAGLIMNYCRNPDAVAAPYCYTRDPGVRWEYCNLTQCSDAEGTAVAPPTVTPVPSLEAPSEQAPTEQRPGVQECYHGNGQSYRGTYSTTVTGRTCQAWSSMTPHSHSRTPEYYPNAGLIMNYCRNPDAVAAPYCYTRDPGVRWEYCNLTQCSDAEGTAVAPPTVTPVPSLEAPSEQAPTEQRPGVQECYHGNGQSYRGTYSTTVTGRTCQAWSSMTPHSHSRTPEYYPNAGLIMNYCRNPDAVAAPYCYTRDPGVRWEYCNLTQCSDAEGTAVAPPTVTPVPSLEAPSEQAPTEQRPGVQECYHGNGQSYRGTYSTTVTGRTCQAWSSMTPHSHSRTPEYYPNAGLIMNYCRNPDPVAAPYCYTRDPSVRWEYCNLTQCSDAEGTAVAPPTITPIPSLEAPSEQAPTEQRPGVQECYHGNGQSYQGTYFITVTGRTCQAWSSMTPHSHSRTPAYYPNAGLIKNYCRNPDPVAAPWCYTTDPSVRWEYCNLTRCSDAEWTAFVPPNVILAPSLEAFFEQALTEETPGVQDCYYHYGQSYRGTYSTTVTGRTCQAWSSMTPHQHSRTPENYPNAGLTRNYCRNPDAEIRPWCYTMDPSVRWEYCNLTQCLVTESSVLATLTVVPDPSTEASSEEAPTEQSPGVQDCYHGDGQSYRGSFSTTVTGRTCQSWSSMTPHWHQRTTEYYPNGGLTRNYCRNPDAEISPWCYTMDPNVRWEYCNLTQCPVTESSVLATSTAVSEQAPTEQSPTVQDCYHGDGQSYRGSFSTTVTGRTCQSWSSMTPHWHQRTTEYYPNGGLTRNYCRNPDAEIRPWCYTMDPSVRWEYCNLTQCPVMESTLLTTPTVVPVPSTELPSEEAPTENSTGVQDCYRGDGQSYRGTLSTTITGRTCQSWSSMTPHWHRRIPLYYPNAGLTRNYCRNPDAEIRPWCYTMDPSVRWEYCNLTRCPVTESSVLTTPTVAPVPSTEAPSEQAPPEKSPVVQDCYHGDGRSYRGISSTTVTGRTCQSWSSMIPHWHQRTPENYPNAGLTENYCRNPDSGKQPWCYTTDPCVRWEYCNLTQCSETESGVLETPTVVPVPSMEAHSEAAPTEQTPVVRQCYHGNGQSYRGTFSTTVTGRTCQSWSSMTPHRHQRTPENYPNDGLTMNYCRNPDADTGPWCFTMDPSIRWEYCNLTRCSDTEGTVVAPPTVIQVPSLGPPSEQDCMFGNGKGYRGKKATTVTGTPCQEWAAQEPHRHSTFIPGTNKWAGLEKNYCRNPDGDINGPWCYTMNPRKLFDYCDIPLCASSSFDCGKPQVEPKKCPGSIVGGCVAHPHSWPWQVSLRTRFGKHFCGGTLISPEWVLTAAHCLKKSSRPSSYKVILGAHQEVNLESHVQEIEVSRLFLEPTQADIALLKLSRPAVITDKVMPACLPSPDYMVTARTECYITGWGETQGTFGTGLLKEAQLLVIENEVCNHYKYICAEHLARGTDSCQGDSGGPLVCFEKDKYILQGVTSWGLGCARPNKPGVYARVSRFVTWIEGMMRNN
Put plainly: BLI affinity of compounds to Apo(a). It counts as binding. Conditions: biotinylated apolipoprotein(a) on SA sensor, compound 100 nM. Here is the method: • 1. Experimental purpose: The purpose of this test is to test the affinity of the compounds of the present disclosure to Apo(a) • 2. Experimental instruments and reagents: • Molecular interaction analyzer (ForteBio Octet red 96e), • SA sensor (ForteBio), • 96-well plates were purchased from Greine, • 3. Experimental methods:
Prepared two 96-well plates, one as a sample plate and another as a pre-wett plate, curing buffer was added to a 200 μL well of the pre-wet plate, and the SA sensor was pre-wetted for at least ten minutes. All reagents and samples were added to another black sample plate, after the sample addition was completed, the sensor plate and the sample plate were placed into the ForteBio Octet red 96e instrument. The program was set up in sequence for detection. The experimental temperature was set to 30° C. and the acquisition frequency was set at 5.0 Hz. The biosensor was run in 1×PBS, pH7.4, 0.02% Tween-20, 0.1% BSA in the first column for 60 seconds, which was the baseline step. Biotinylated apolipoprotein(a) was diluted to 40 μg/ml with 1×PBS, pH7.4, 0.02% Tween-20, 0.1% BSA, and added to the second column, where it was run for a period of time until the amount of curing on the sensor reaches 2.0 nm. The biosensor was run in 1×PBS, pH7.4, 0.02% Tween-20, 0.1% BSA in the third column for 60 seconds, which was the baseline step. The compound was diluted to 100 nM with 1×PBS, pH7.4, 0.02% Tween-20, 0.1% BSA, and added to the fourth column, where the sensor was run for 60 seconds. The sensor was run in 1×PBS, pH7.4, 0.02% Tween-20, 0.1% BSA in the third column for 120 seconds, during this process, the compound dissociated from the sensor. The affinity constant KD reflects the size of the interaction binding ability. When the concentration of the analyte is at KD, the equilibrium signal Req is half of Rmax.
`O=C(O)[C@@H](Cc1cccc(COC2CC(OCc3cccc(C[C@H](C(=O)O)[C@H]4CCNC4)c3)CC(OCc3cccc(C[C@H](C(=O)O)[C@H]4CCNC4)c3)C2)c1)[C@H]1CCNC1` (some centres unmarked) [Example 6]: the Kd is 19.9 nM.

Turning to `O=C(O)[C@@H](Cc1cccc(Oc2nc(Oc3cccc(C[C@H](C(=O)O)[C@H]4CCNC4)c3)nc(Oc3cccc(C[C@H](C(=O)O)[C@H]4CCNC4)c3)n2)c1)[C@H]1CCNC1` [Example 7], the dissociation constant Kd stood at 8.06 nM.

Molecule `O=C(NCCN(CCNC(=O)c1cccc(C[C@H](C(=O)O)[C@H]2CCNC2)c1)CCNC(=O)c1cccc(C[C@H](C(=O)O)[C@H]2CCNC2)c1)c1cccc(C[C@H](C(=O)O)[C@H]2CCNC2)c1` [Example 8] came in with a Kd of 18.7 nM.

Consider `O=C(O)[C@@H](Cc1cccc(OCc2cc(COc3cccc(C[C@H](C(=O)O)[C@H]4CCNC4)c3)cc(COc3cccc(C[C@H](C(=O)O)[C@H]4CCNC4)c3)c2)c1)[C@H]1CCNC1` [Example 10], for which the equilibrium dissociation constant (Kd) turned out to be 25.3 nM.

For `O=C(O)[C@@H](Cc1cccc(CN(Cc2cccc(C[C@H](C(=O)O)[C@H]3CCNC3)c2)Cc2cccc(C[C@H](C(=O)O)[C@H]3CCNC3)c2)c1)C1CNC1` [Example 11], the Kd came out at 14.2 nM.

The term Kd denotes the constant that tells how readily two partners part at equilibrium. Read a low Kd as higher affinity.
